# Values quoted from earlier work in US5550124A, “Use of peripheral-type benzodiazpine sites for treatment of CNS trauma or disease” (priority 1991, dated 1996).
# Entries after “also recorded” stand apart in the source; their conditions may differ. Like-named read-outs stand apart in the source and are kept apart here.
# Experiments:
# NMDA receptor [1] = settings: in vivo; cited from earlier work
# NMDA receptor [2] = settings: rats; cited from earlier work
# NMDA receptor [3] = settings: cats; cited from earlier work
# [4] = in vivo; cited from earlier work
# [5] = in vivo; cited from earlier work; remark: listed apart in the source
# platelet aggregation = settings: cited from earlier work
# [6] = ischemic baboons; cited from earlier work
# [7] = in vivo; cited from earlier work; remark: listed apart in the source
# [8] = in vivo; cited from earlier work; remark: listed apart in the source
# [9] = rats; cited from earlier work
# [10] = administered post-ischemia in animals; cited from earlier work
# [11] = dogs; cited from earlier work
compound,measurement,setting,value
C[C@]12N[C@H](Cc3ccccc31)c1ccccc12 [MK-801],adverse reactions,NMDA receptor [1],"respiratory depression and elevated CO2 level; also recorded: behavioral changes, including a psychotic-like response and diminished cognitive and mental status"
same,effect on blood pressure,NMDA receptor [2],increases blood pressure
same,effect on blood pressure,NMDA receptor [3],increases blood pressure
CC(=O)CCCCn1c(=O)c2c(ncn2C)n(C)c1=O [Pentoxifylline],effect on blood viscosity / red blood cell flexibility,[4],improves the oxygenation of ischemic tissues by decreasing blood viscosity
same,adverse effects,[5],"chest pain, dyspepsia, nausea, vomiting, dizziness, headache, tremor, anxiety, blurred vision, malaise, and others"
COc1ccc2c(c1)c(CC(=O)O)c(C)n2C(=O)c1ccc(Cl)cc1 [indomethacin],effect on platelet aggregation,platelet aggregation,inhibit platelet aggregation
same,"edema, cerebral blood flow and carbon dioxide reactivity",[6],significantly increase edema and decrease cerebral blood flow and carbon dioxide reactivity
"CN1C(=O)CN=C(c2ccccc2)c2cc(Cl)ccc21 [Diazepam, 7-Chloro-1,3-dihydro-1-methyl-5-phenyl-2H-1,4-benzodiazepin-2-one]",effect in cerebral ischemia,[7],somewhat effective in treatment of cerebral ischemia
"CCCCC[C@H](O)/C=C/[C@@H]1[C@H]2C/C(=C/CCCC(=O)O)O[C@H]2C[C@H]1O [PGI2, prostaglandin I2]",half life,[8],3 min
same,adverse effects,[5],tendency to precipitate hypotension
COC(=O)C1=C(C)NC(C)=C(C(=O)OC)C1c1ccccc1[N+](=O)[O-] [Nifedipine],effect on cerebral blood flow,[9],antagonize cerebral blood flow
CN1CCC(=C2c3ccccc3C=Cc3ccccc32)CC1 [cyproheptadine],effect on neurologic function,[10],help preserve neurologic function
CN(C)CCCSc1ccccc1NC(=O)/C=C/c1ccccc1 [cinanserin],effect on neurologic function,[10],help preserve neurologic function
Fc1ccc(C(c2ccc(F)cc2)N2CCN(C/C=C/c3ccccc3)CC2)cc1 [Flunarizine],effect on cerebral blood flow,[11],no increase in cerebral blood flow or improvement in cerebral metabolism
